Test results published in patent US10770169B2, “Method of providing a treatment to a subject based on a dynamic pathway map” (THE REGENTS OF THE UNIVERSITY OF CALIFORNIA, priority 2010, dated 2020).
Read-outs that look alike come from different tables or passages of the source.

How the values were obtained:
[1] = tested on: panel of 55 breast cancer cell lines; test: Cell growth inhibition assay (Cell Titer Glo, 72 h, 9 doses; GI50, TGI, LC50); format: cell-based, human; details: Homo sapiens, read-out: GI50 (converted)
[2] = tested on: luminal, basal, claudin-low and ERBB2AMP breast cancer cell lines; test: Associations of clinically relevant subtypes and response (non-parametric ANOVA or t-test on GI50 ranks); format: cell-based, human; details: Table 6; most sensitive subtype, FDR p<0.20
Procedure, shortened: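 GI50 values were compared between cell-line subtype groups by non-parametric ANOVA or t-test on ranks. P-values from three test sets were combined and FDR-corrected. Significant three-group effects were followed by post-hoc comparison of each group against all others, and FDR p<0.20 counted as significant.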

What does the source list for `CO[C@H]1C[C@@H]2CC[C@@H](C)[C@@](O)(O2)C(=O)C(=O)N2CCCC[C@H]2C(=O)O[C@H]([C@H](C)C[C@@H]2CC[C@@H](OC(=O)C(C)(CO)CO)[C@H](OC)C2)CC(=O)[C@H](C)/C=C(\C)[C@@H](O)[C@@H](OC)C(=O)[C@H](C)C[C@H](C)/C=C/C=C/C=C/1C` [Temsirolimus]?
GI50 ([1]; 600MPE cell line, censored GI50 values): 18200 nM; GI50 ([1]; AU565, AU565 cell line, censored GI50 values): 100 nM; GI50 ([1]; AU565, cell line AU565): 100 nM; GI50 ([1]; BT-20, BT20 cell line, censored GI50 values): 776 nM; GI50 ([1]; BT-20, cell line BT20): 776 nM; GI50 ([1]; BT-474, BT474 cell line, censored GI50 values): 13.5 nM; GI50 ([1]; BT-474, cell line BT474): 13.5 nM; GI50 ([1]; BT-483, BT483 cell line, censored GI50 values): 66100 nM; GI50 ([1]; BT-483, cell line BT483): 66100 nM; GI50 ([1]; CAMA-1, CAMA1 cell line, censored GI50 values): 43.7 nM; GI50 ([1]; CAMA-1, cell line CAMA1): 43.7 nM; GI50 ([1]; HCC38, HCC38 cell line, censored GI50 values): 389 nM; GI50 ([1]; HCC38, cell line HCC38): 389 nM; GI50 ([1]; HCC70, HCC70 cell line, censored GI50 values): 407 nM; GI50 ([1]; HCC70, cell line HCC70): 407 nM; GI50 ([1]; HCC1143, HCC1143 cell line, censored GI50 values): 1580 nM; GI50 ([1]; HCC1143, cell line HCC1143): 1580 nM; GI50 ([1]; HCC1187, HCC1187 cell line, censored GI50 values): 794 nM; GI50 ([1]; HCC1187, cell line HCC1187): 794 nM; GI50 ([1]; HCC1395, HCC1395 cell line, censored GI50 values): 12600 nM; GI50 ([1]; HCC1395, cell line HCC1395): 12600 nM; GI50 ([1]; HCC1419, HCC1419 cell line, censored GI50 values): 52.5 nM; GI50 ([1]; HCC1419, cell line HCC1419): 52.5 nM; GI50 ([1]; HCC1428, HCC1428 cell line, censored GI50 values): 6170 nM; GI50 ([1]; HCC1428, cell line HCC1428): 6170 nM; GI50 ([1]; HCC1500, HCC1500 cell line, censored GI50 values): 24500 nM; GI50 ([1]; HCC1500, cell line HCC1500): 24500 nM; GI50 ([1]; HCC1806, HCC1806 cell line, censored GI50 values): 20400 nM; GI50 ([1]; HCC1806, cell line HCC1806): 20400 nM; GI50 ([1]; HCC1937, HCC1937 cell line, censored GI50 values): 437 nM; GI50 ([1]; HCC1937, cell line HCC1937): 437 nM; GI50 ([1]; HCC1954, HCC1954 cell line, censored GI50 values): 219 nM; GI50 ([1]; HCC1954, cell line HCC1954): 219 nM; GI50 ([1]; HCC2185 cell line, censored GI50 values): 13.2 nM; GI50 ([1]; HCC3153 cell line, censored GI50 values): 20000 nM; GI50 ([1]; LY2 cell line, censored GI50 values): 209 nM; GI50 ([1]; MCF7, MCF7 cell line, censored GI50 values): 1550 nM; GI50 ([1]; MCF7, cell line MCF7): 1550 nM; GI50 ([1]; MDA-MB-134-VI, MDAMB134VI cell line, censored GI50 values): 166 nM; GI50 ([1]; MDA-MB-175-VII, MDAMB175VII cell line, censored GI50 values): 2290 nM; GI50 ([1]; MDA-MB-361, MDAMB361 cell line, censored GI50 values): 251 nM; GI50 ([1]; MDA-MB-415, MDAMB415 cell line, censored GI50 values): 75.9 nM; GI50 ([1]; MDA-MB-436, MDAMB436 cell line, censored GI50 values): 53700 nM; GI50 ([1]; MDA-MB-453, MDAMB453 cell line, censored GI50 values): 100 nM; GI50 ([1]; MDA-MB-468, MDAMB468 cell line, censored GI50 values): 5620 nM; GI50 ([1]; SK-BR-3, SKBR3 cell line, censored GI50 values): 53.7 nM; GI50 ([1]; SUM52PE, SUM52PE cell line, censored GI50 values): 0.417 nM; GI50 ([1]; SUM149PT, SUM149PT cell line, censored GI50 values): 6170 nM; GI50 ([1]; SUM185PE, SUM185PE cell line, censored GI50 values): 1.1 nM; GI50 ([1]; SUM1315MO2, SUM1315MO2 cell line, censored GI50 values): 1120 nM; GI50 ([1]; SUM-159-PT, SUM159PT cell line, censored GI50 values): 229 nM; GI50 ([1]; T47D, T47D cell line, censored GI50 values): 1410 nM; GI50 ([1]; UACC-812, UACC812 cell line, censored GI50 values): 575 nM; GI50 ([1]; ZR-75-1, ZR751 cell line, censored GI50 values): 66100 nM; GI50 ([1]; ZR-75B, ZR75B cell line, censored GI50 values): 107 nM; GI50 ([1]; cell line 600MPE): 18200 nM; GI50 ([1]; cell line HCC2185): 13.2 nM; GI50 ([1]; cell line HCC3153): 20000 nM; GI50 ([1]; cell line LY2): 209 nM; Subtype specificity [2]: Luminal/ERBB2AMP
